Literature values as cited in patent publication US8128952B2, “Ligand-mediated controlled drug delivery” (Clemson University Research Foundation, priority 2005, dated 2012).

Molecular target: human growth hormone (hGH) (Homo sapiens, UniProt P01241)
Conditions: interaction between hGH and Zn-EDTA

Chain of human growth hormone (hGH) (P01241 27-217): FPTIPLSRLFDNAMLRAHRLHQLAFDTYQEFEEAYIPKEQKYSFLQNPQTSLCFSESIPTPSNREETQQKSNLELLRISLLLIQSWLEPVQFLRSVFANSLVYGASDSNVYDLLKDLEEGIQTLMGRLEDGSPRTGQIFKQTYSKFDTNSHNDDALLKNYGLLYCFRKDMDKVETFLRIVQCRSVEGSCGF

- Kd: 380 µM
Structure (SMILES): O=C([O-])CN(CCN(CC(=O)O)CC(=O)O)CC(=O)[O-].[Zn+2] [Zn-EDTA, Zn-ethylenediamine tetraacetic acid]
